Source: ChEMBL document CHEMBL3832045, “DailyMed|setid=14ed9edd-bfd3-4fa4-9293-66666f779ba3 | TRIAMCINOLONE ACETONIDE - triamcinolone acetonide spray, metered|Physicians Total Care, Inc”

Tests used:
Format in all cases: ADME, organism-based
[1] = (§1) Pharmacokinetic parameters for triamcinolone acetonide evaluated after intranasal administration of triamcinolone acetonide nasal spray.; parameters: dose 220 mcg, route intranasal, dose 110 to 440; conditions: human, in vivo, inhaled or intranasal, dosed compound id 47, dosed compound name TRIAMCINOLONE ACETONIDE, regimen Single dose, tissue Plasma
[2] = test system: Homo sapiens; assay: as §1; parameters: dose 220 mcg, route intranasal, dose 110 to 440; conditions: in vivo, inhaled_or_intranasal, dose 220 mcg, dosed compound id 47, dosed compound name TRIAMCINOLONE ACETONIDE, regimen Single dose, route intranasal, tissue Plasma
[3] = Evaluation of pharmacokinetic parameters for triamcinolone acetonide following intravenous dosing of triamcinolone acetonide phosphate ester in adults.; conditions: human, in vivo, dosed compound id 470, dosed compound name TRIAMCINOLONE ACETONIDE PHOSPHATE ESTER, tissue Plasma

Tmax ([1]; dose 220 mcg, route intranasal): 1.5 h | half-life ([1]; dose 220 mcg, route intranasal): 3.1 h | Cmax [1]: 0.5 ng/mL | AUC ([1]; read-out: AUC(0 to inf)): 1.4 to 4.7 ng·h/mL | t1/2 [2]: 3.1 h | Vd [3]: 99.5 L | clearance [3]: 753 mL/min | half-life [3]: 1.47 h
Structure (SMILES): CC1(C)O[C@@H]2C[C@H]3[C@@H]4CCC5=CC(=O)C=C[C@]5(C)[C@@]4(F)[C@@H](O)C[C@]3(C)[C@]2(C(=O)CO)O1 [TRIAMCINOLONE ACETONIDE]
